The target in the assay is T1, human PPARδ receptor (Homo sapiens, UniProt Q03181).
T1 construct: expressed in transfected cells
T1 sequence (Q03181 211-439 limits assumed): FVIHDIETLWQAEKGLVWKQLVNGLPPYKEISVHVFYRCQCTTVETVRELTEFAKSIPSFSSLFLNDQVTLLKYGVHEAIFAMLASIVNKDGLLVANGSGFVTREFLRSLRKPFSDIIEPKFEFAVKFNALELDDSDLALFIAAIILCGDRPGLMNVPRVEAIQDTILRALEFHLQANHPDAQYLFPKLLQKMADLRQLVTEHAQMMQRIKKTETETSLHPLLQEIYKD
Briefly: Cellular transactivation assay (GAL4-PPARδ chimera, luciferase reporter). The assay is classed as cell-based. The settings on record: GAL4-PPARδ chimera stably expressed in CHO cells, 24 hours stimulation. The source says:
A cellular assay is used to identify activators of the peroxisome proliferator-activated receptor delta (PPAR-delta).
Since mammalian cells contain different endogenous nuclear receptors which may complicate an unambiguous interpretation of the results, an established chimera system is used in which the ligand binding domain of the human PPARδ receptor is fused to the DNA binding domain of the yeast transcription factor GAL4. The resulting GAL4-PPARδ chimera is co-transfected and stably expressed in CHO cells having a reporter construct.
The GAL4-PPARδ expression construct contains the ligand binding domain of PPARδ (amino acids […]), which is PCR-amplified and cloned into the vector pcDNA3.1. This vector already contains the GAL4 DNA binding domain (amino acids 1-147) of the vector pFC2-dbd (Stratagene). […]
CHO (chinese hamster ovary) cells are sown in CHO-A-SFM medium (GIBCO), supplemented by 2.5% foetal calf serum and 1% penicillin/streptomycin (GIBCO), at a cell density of 2×10^3 cells per well in a 384-well plate (Greiner). […] After a stimulation period of 24 hours, the luciferase activity is measured using a video camera. The relative light units measured give, as a function of the substance concentration, a sigmoidal stimulation curve. The EC50 values are calculated using the computer program GraphPad PRISM (Version 3.02).
In general terms: A reporter such as luciferase makes a cellular process visible.

Each structure is given as a SMILES string.

The EC50 is the concentration that produces a half-maximal response. The low end stands for higher potency in that assay, the high end for lower potency in that assay.

As to `CN(CC(=O)O)c1ccc(S(=O)(=O)N2CC(C)(C)c3cc(-c4ccc(C(F)(F)F)cc4)ccc32)cc1` [Working Example 1, N-[4-({3,3-Dimethyl-5-[4-(trifluoromethyl)phenyl]-2,3-dihydro-1H-indol-1-yl}sulphonyl)phenyl]-N-methylglycine], the EC50 came to 8.5 nM.
